“Also recorded” adds a separate entry of the source.
How the values were obtained:
calreticulin (CRT) [1] = assay: Surface expression of calreticulin in Kasumi-1 cells (flow cytometry); format: cell-based, human; settings: 15 μM or 50 μM APR-246, overnight; FIG. 12B
Experimental: (§1) Briefly, the Kasumi-1 human acute myelocytic leukemia (AML) cells were incubated overnight in the presence of vehicle only control, 15 μM APR-246, or 50 μM APR-246. The following day, the Kasumi-1 cells were analyzed by flow cytometry for surface expression of p53 and calreticulin (CRT).

p53 = assay: Surface expression of p53 in Kasumi-1 cells (flow cytometry); format: cell-based, human; settings: 15 μM or 50 μM APR-246, overnight; FIG. 12A
Experimental: as §1

calreticulin (CRT) [2] = assay: Surface expression of calreticulin in K652 cells (flow cytometry); format: cell-based, human; settings: 1 μM, overnight; FIG. 11C
Experimental: (§2) Briefly, the K652 human chronic myelogenous leukemia cells were incubated overnight in the presence of vehicle only control, 1 μM azacitidine or 1 μM pevonedistat. The following day, the K652 cells were analyzed by flow cytometry for surface expression of CD47 or calreticulin (CRT).

A20 lymphoma cells = assay: In vivo anti-tumor efficacy, A20 lymphoma cell allograft mouse model; set-up: species or system BALB/C mice; settings: day 12; 1 mg/kg azacitidine (days 0-4), 4 mg/kg pevonedistat (MLN4924) (days 0-3), 200 μg SIRPα-Fc-CD40L (mSIRPα-Fc-CD40L; days 0, 3, 6), intraperitoneal; FIG. 13C
Experimental: The efficacy of the SIRPα-Fc-CD40L chimeric protein was evaluated in combination with an immune checkpoint inhibitor. Towards that, the ability of an anti-PD-L1 antibody and chimeric proteins to target and reduce tumor volume in vivo was determined. Briefly, BALB/C mice were inoculated with 1×10^6 A20 lymphoma cells. When tumor volumes were approximately 75 to 80 mm^3 (day 0), the mice were randomly distributed in the following treatment groups: (1) vehicle only control, (2) 200 μg of the mouse SIRPα-Fc-CD40L chimeric protein alone, (3) 100 μg an anti-PD-L1 antibody (clone 10F.9G2), and (4) a combination 200 μg of the SIRPα-Fc-CD40L chimeric protein and 100 μg the anti-PD-L1 antibody. […] Tumors were measured with electronic calipers on day 12 and plotted using the GraphPad Prism software. […]
The efficacy of the SIRPα-Fc-CD40L chimeric protein was evaluated in combination with an antimetabolite/DNA synthesis inhibitor. Towards that, the ability of cytarabine and the chimeric protein to target and reduce tumor volume in vivo was determined. […] Tumors were measured with electronic calipers on day 12 and plotted using the GraphPad Prism software. […]
The efficacy of the SIRPα-Fc-CD40L chimeric protein was evaluated in combination with a hypomethylating agent/an epigenetic regulator and/or a protein neddylation inhibitor. […]

calreticulin (CRT) [3] = assay: Surface expression of calreticulin in Kasumi-3 cells (flow cytometry), Example 17; format: cell-based, human; settings: 1 μM, overnight; FIG. 11D
Experimental: (§3) In another experiment, the Kasumi-3 human acute myelocytic leukemia (AML) cells were incubated overnight in the presence of vehicle only control, 1 μM pevonedistat (MLN4924) or […]. The following day, the Kasumi-3 cells were analyzed by flow cytometry for surface expression of CD47 or calreticulin (CRT).

CD47 [4] = assay: Surface expression of CD47 in K652 cells (flow cytometry); format: cell-based, human; settings: 1 μM, overnight; FIG. 11A
Experimental: as §2

CD47 [5] = assay: Surface expression of CD47 in Kasumi-3 cells (flow cytometry); format: cell-based, human; settings: 1 μM, overnight; FIG. 11B
Experimental: as §3

Kasumi-3 AML cells = assay: Phagocytosis of Kasumi-3 AML cells by human macrophages (flow cytometry): azacitidine and/or venetoclax and/or SIRPα-Fc-CD40L; format: cell-based; settings: 50 μg/ml SIRPα-Fc-CD40L (p<0.05), 10 μM azacitidine (p<0.0001), 1 μM venetoclax (p<0.05); each combination p<0.0001; 4 hours; FIG. 14C
Experimental: Briefly, the Kasumi-3 AML cells were labeled with a green fluorescent tracker and co-cultured with human macrophages and treated with (1) vehicle alone control, (2) 50 μg/ml of the SIRPα-Fc-CD40L chimeric protein, (3) 10 μM azacitidine, (4) 50 μg/ml of the SIRPα-Fc-CD40L chimeric protein+10 μM azacitidine, (5) 1 μM venetoclax, (6) 50 μg/ml of the SIRPα-Fc-CD40L chimeric protein+1 μM venetoclax, or (7) 50 μg/ml of the SIRPα-Fc-CD40L chimeric protein+1 μM venetoclax+10 μM azacitidine. The cells were incubated at 37° C. in the presence of 5% CO2 for 4 hours. After this incubation, the cells were harvested and treated with an anti-CD11b antibody (a macrophage marker) and were analyzed using flow cytometry. Positive phagocytosis was determined by the overlap in signals of tumor (the green fluorescent tracker) and macrophage (anti-CD11b antibody staining). A phagocytosis index was calculated by setting the maximum phagocytosis value to 1, and then normalizing all other replicates accordingly. The phagocytosis index was plotted for the indicated treatments.

[6] = tested on: K652 human chronic myelogenous leukemia (CML) cells; assay: Phagocytosis of K652 cells by human macrophages (flow cytometry): azacitidine and/or SIRPα-Fc-CD40L; format: cell-based; settings: 0.1 μM azacitidine overnight and/or SIRPα-Fc-CD40L for 4 hours; combination p<0.001 vs control; FIG. 2A
Experimental: (§4) Briefly, the K652 human chronic myelogenous leukemia (CML) cells were labeled with a green fluorescent tracker and treated with vehicle alone control or 0.1 μM azacitidine overnight. The following day, the tumor cells were washed in PBS and then co-cultured with human macrophages with or without the SIRPα-Fc-CD40L chimeric protein for 4 hours at 37° C. in the presence of 5% CO2. After this incubation, the cells were harvested and treated with an anti-CD11b antibody (a macrophage marker) and were analyzed using flow cytometry. Positive phagocytosis was determined by the overlap in signals of tumor (the green fluorescent tracker) and macrophage (anti-CD11b antibody staining). A phagocytosis index was calculated by setting the maximum phagocytosis value to 1, and then normalizing all other replicates accordingly. The phagocytosis index was plotted for the indicated treatments.

calreticulin (CRT) [7] = assay: Surface expression of calreticulin in Kasumi-3 cells (flow cytometry), Example 19; format: cell-based, human; settings: increasing amounts, overnight; FIG. 14B
Experimental: (§5) The surface expression of apoptosis marker […] or the […] protein calreticulin (CRT) was studied. Briefly, the Kasumi-3 cells were incubated overnight in the presence of vehicle only control, increasing amounts of azacitidine or venetoclax, or a combination of azacitidine and venetoclax. The following day, the cells were analyzed by flow cytometry for surface expression of annexin or calreticulin (CRT). […] In addition, except for very high concentrations of azacitidine and venetoclax (100 μM each), the apoptosis induced by azacitidine and venetoclax was not additive compared to corresponding single treatments (FIG. 14A). […] In addition, except for very high concentrations of azacitidine and venetoclax (100 μM each), the apoptosis induced by azacitidine and venetoclax was not additive compared to corresponding single treatments (FIG. 14B).

annexin V = assay: Surface expression of annexin V in Kasumi-3 cells (flow cytometry); format: cell-based, human; settings: increasing amounts, overnight; FIG. 14A
Experimental: as §5

[8] = tested on: Kasumi-3 human acute myelocytic leukemia (AML) cells; assay: Phagocytosis of Kasumi-3 cells by human macrophages (flow cytometry): azacitidine and/or SIRPα-Fc-CD40L; format: cell-based; settings: 0.1 pM azacitidine overnight and/or SIRPα-Fc-CD40L for 4 hours; combination p<0.0001 vs control; FIG. 2B
Experimental: as §4, with “In another experiment,” for “Briefly,”, “Kasumi-3” for “K652”, “acute myelocytic” for “chronic myelogenous”, “(AML)” for “(CML)”, “[…]” for “μM”

Structure (SMILES) | expression of calreticulin compared to the vehicle only-treated Kasumi-1 cells (calreticulin (CRT) [1]) | expression of p53 compared to the vehicle only-treated Kasumi-1 cells (p53) | surface expression of calreticulin, a pro-phagocytic marker, compared to the vehicle only-treated K652 cells (calreticulin (CRT) [2]) | tumor size (A20 lymphoma cells) | surface expression of calreticulin, a pro-phagocytic marker, compared to the vehicle only-treated Kasumi-3 cells (calreticulin (CRT) [3]) | surface expression of CD47 compared to the vehicle only-treated K652 cells (CD47 [4]) | surface expression of CD47 compared to the vehicle only-treated Kasumi-3 cells (CD47 [5]) | level of phagocytosis (phagocytosis index) compared to the vehicle only-treated Kasumi-3 cells (Kasumi-3 AML cells) | level of phagocytosis (phagocytosis index) compared to the control K652 cells [6] | expression of calreticulin compared to the vehicle only-treated Kasumi-3 cells (calreticulin (CRT) [7]) | expression of annexin V (apoptosis marker) compared to the vehicle only-treated Kasumi-3 cells (annexin V) | level of phagocytosis (phagocytosis index) compared to the control Kasumi-3 cells [8]
COCC1(CO)C(=O)C2CCN1CC2 (stereo not drawn) [APR-246] | induced the expression | dose-dependent induction |  |  |  |  |  |  |  |  |  | 
NS(=O)(=O)OC[C@@H]1C[C@@H](n2ccc3c(N[C@H]4CCc5ccccc54)ncnc32)C[C@@H]1O [pevonedistat (MLN4924), pevonedistat] |  |  | induced the expression | reduction in tumor size | induced the expression | induced the expression | induced the expression |  |  |  |  | 
Nc1ncn([C@@H]2O[C@H](CO)[C@@H](O)[C@H]2O)c(=O)n1 [azacitidine] |  |  | induced the expression | reduction in tumor size |  | induced the expression |  | increased level of phagocytosis | increased level of phagocytosis | induced the expression of calreticulin in Kasumi-3 cells in a dose-dependent manner; also recorded: increased the expression | induced the expression of annexin V in Kasumi-3 cells in a dose-dependent manner; also recorded: increased the expression | slight increase in the level of phagocytosis
